From patent US10889581B2, “Cyclopropyl fused thiazine derivatives as beta-secretase inhibitors and methods of use” (AMGEN INC., priority 2016, dated 2021)

Tests used:
[1] = molecular target: T1, BACE1 (Homo sapiens (Human), UniProt P56817); assay: In vitro enzymatic BACE1 FRET assay; type: biochemical; settings: pH 4.5, read-out: BACE1 Enzyme IC50
Target sequence in this assay (P56817 46-501): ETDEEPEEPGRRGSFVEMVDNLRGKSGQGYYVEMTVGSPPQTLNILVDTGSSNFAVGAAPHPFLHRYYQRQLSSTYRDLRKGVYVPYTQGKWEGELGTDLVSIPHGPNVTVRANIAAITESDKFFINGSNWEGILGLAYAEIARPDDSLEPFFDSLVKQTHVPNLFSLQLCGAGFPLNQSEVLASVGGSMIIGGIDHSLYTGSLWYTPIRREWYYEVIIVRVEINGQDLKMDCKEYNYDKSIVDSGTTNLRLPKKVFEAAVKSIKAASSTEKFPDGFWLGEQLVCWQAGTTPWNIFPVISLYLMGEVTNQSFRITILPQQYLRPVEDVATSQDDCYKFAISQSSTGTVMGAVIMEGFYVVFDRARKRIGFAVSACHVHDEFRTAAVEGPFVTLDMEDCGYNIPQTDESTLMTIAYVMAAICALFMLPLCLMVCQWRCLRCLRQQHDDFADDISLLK

[2] = molecular target: T1, BACE1; assay: In vitro BACE1 cell-based assay (Aβ40 in conditioned medium of cells stably expressing APP, HTRF)
Method: In Vitro BACE1 Cell-Based Assay
The cell-based assay measures inhibition or reduction of Aβ40 in conditioned medium of test compound treated cells expressing amyloid precursor protein. Cells stably expressing Amyloid Precursor Protein (APP) were plated at a density of 45K cells/well in 384 well plates (Corning/BioCoat 354663). The test compounds were then added to cells in 22-point dose response concentrations with the starting concentration being 62.5 μM. The compounds were diluted from stock solutions in DMSO and the final DMSO concentration of the test compounds on cells was 0.625%. The cells were cultivated overnight at 37° C. and 5% CO2 in DMEM supplemented with 10% FBS. After 24 h of incubation with the test compounds, the conditioned media was collected and the Aβ40 levels were determined using HTRF (Homogeneous Time Resolved Fluorescence). The IC50 of the compound was calculated from the percent of control or percent inhibition of Aβ40 as a function of the concentration of the test compound.
The HTRF to detect Aβ40 was performed in 384 well plates (Costar 3658). The antibody pair that were used to detect Aβ40 from cell supernatants were ConfAb40 antibody (Amgen in-house) and biotinylated 6E10 (BIOLEGEND). As an alternative to ConfAb40, a commercially available antibody, Anti-beta Amyloid 1-40 antibody [BDI350] from Abcam, Cambridge, Mass. 02139-1517 (Product code: ab20068), may be used in this assay. The concentrations were 0.35 μg/mL of ConfAb40 antibody and 1.33 μg/mL of 6E10-biotinylated antibody, as well as 4.5 μg/mL of Streptavidin Allophycocyanin Conjugate (ThermoFisher Scientific) in HTRF Buffer ([…], 1% BSA, 0.5% Tween 20).
The conditioned media was incubated with above antibodies and Streptavidin Allophycocyanin Conjugate for 30-60 minutes at 23° C. The final readout was performed on Envision from PerkinElmer.
Target sequence in this assay (P56817 46-501, species assumed): as the sequence (P56817 46-501) above

[3] = molecular target: human recombinant BACE2 (Homo sapiens (Human), UniProt Q9Y5Z0); assay: In vitro enzymatic BACE2 FRET assay; type: biochemical; settings: pH 4.5, read-out: BACE2 Enzyme IC50
[4] = molecular target: Recombinant CatD (Homo sapiens (Human), UniProt P07339); assay: In vitro enzymatic Cathepsin D (CatD) FRET assay; type: biochemical; settings: pH 3.5, read-out: Cat D Enzyme IC50
[5] = Aβ40, 24 h incubation, read-out: BACE1 Cell IC50

Sequence of Recombinant CatD (P07339 65-412): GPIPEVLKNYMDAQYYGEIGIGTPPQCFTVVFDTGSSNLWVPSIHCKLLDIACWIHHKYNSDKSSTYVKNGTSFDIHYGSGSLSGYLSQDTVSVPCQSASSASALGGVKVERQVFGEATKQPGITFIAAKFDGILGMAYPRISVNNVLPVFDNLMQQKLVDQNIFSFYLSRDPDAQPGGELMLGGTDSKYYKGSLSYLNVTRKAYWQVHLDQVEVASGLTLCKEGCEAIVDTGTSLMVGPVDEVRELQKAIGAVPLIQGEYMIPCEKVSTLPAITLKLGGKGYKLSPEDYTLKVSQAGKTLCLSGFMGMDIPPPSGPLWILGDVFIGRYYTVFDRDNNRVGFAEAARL
Sequence of human recombinant BACE2 (Q9Y5Z0 63-518): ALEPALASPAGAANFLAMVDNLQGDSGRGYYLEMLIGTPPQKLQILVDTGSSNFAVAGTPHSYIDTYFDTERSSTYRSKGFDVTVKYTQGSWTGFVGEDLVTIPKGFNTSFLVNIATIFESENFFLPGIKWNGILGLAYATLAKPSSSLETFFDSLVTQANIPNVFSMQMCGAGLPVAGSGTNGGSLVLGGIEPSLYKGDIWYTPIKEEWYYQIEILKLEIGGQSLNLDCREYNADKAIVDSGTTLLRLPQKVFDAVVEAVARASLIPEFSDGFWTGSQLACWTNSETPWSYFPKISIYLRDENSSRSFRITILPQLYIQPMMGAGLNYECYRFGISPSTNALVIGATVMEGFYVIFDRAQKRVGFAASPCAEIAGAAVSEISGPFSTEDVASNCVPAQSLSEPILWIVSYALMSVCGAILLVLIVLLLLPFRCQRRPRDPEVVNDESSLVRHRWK

| SMILES | IC50 [1] [µM] | IC50 [2, 5] [µM] | IC50 [3] [µM] | IC50 [4] [µM] | IC50 [2] [µM] |
| --- | --- | --- | --- | --- | --- |
| N#Cc1ccc(C#Cc2ccc(F)c([C@@]3(CF)N=C(N)S[C@@]4(CO)C[C@H]43)c2)nc1 [Example 100, 6-((3-((1S,5S,6S)-3-amino-5-(fluoromethyl)-1-(hydroxymethyl)-2-thia-4-azabicyclo[4.1.0]hept-3-en-5-yl)-4-fluorophenyl)ethynyl)nicotinonitrile] | 0.08 | 0.129 | 4.55 | 4870 |  |
| N#Cc1ccc(C#Cc2ccc(F)c([C@@]3(CF)N=C(N)S[C@@]4(CF)C[C@H]43)c2)nc1 [Example 101, 6-((3-((1S,5S,6S)-3-amino-1,5-bis(fluoromethyl)-2-thia-4-azabicyclo[4.1.0]hept-3-en-5-yl)-4-fluorophenyl)ethynyl)nicotinonitrile] | 0.104 | 0.271 | 6.04 | 2860 |  |
| NC1=N[C@](CF)(c2cc(C#Cc3ccc(Cl)cn3)ccc2F)[C@@H]2C[C@]2(CF)S1 [Example 102, (1S,5S,6S)-5-(5-((5-chloropyridin-2-yl)ethynyl)-2-fluorophenyl)-1,5-bis(fluoromethyl)-2-thia-4-azabicyclo[4.1.0]hept-3-en-3-amine] | 0.182 | 0.685 | 0.445 | 673 |  |
| N#Cc1cnc(C#Cc2ccc(F)c([C@@]3(CF)N=C(N)S[C@@]4(CF)C[C@H]43)c2)cn1 [Example 103, 5-((3-((1S,5S,6S)-3-amino-1,5-bis(fluoromethyl)-2-thia-4-azabicyclo[4.1.0]hept-3-en-5-yl)-4-fluorophenyl)ethynyl)pyrazine-2-carbonitrile] | 0.086 | 3.91 | 1.59 | 229 |  |
| Cc1cc(C#N)cnc1C#Cc1ccc(F)c([C@@]2(CF)N=C(N)S[C@@]3(CF)C[C@H]32)c1 [Example 104, 6-((3-((1S,5S,6S)-3-amino-1,5-bis(fluoromethyl)-2-thia-4-azabicyclo[4.1.0]hept-3-en-5-yl)-4-fluorophenyl)ethynyl)-5-methylnicotinonitrile] | 0.038 | 0.231 | 2.28 | 1300 |  |
| CC#CCOc1ccc(C#Cc2ccc(F)c([C@@]3(CF)N=C(N)S[C@@]4(CF)C[C@H]43)c2)nc1 [Example 105, (1S,5S,6S)-5-(5-((5-(but-2-yn-1-yloxy)pyridin-2-yl)ethynyl)-2-fluorophenyl)-1,5-bis(fluoromethyl)-2-thia-4-azabicyclo[4.1.0]hept-3-en-3-amine] | 0.096 | 0.746 | 10.3 | 500 |  |
| N#CC[C@]12C[C@H]1[C@@](CF)(c1cc(C#Cc3ccc(C#N)cn3)ccc1F)N=C(N)S2 [Example 106, 6-((3-((1R,5S,6S)-3-amino-1-(cyanomethyl)-5-(fluoromethyl)-2-thia-4-azabicyclo[4.1.0]hept-3-en-5-yl)-4-fluorophenyl)ethynyl)nicotinonitrile] | 0.084 | 0.623 | 4.73 | 614 |  |
| N#C/C=C/[C@]12C[C@H]1[C@@](CF)(c1cc(C#Cc3ccc(C#N)cn3)ccc1F)N=C(N)S2 [Example 107, 6-((3-((1R,5S,6S)-3-amino-1-((E)-2-cyanovinyl)-5-(fluoromethyl)-2-thia-4-azabicyclo[4.1.0]hept-3-en-5-yl)-4-fluorophenyl)ethynyl)nicotinonitrile] | 0.047 | 0.372 | 2.55 | 239 |  |
| NC1=N[C@](CF)(c2cc(C#Cc3ccc(OCc4ncco4)cn3)ccc2F)[C@@H]2C[C@]2(CF)S1 [Example 108, (1S,5S,6S)-5-(2-fluoro-5-((5-(oxazol-2-ylmethoxy)pyridin-2-yl)ethynyl)phenyl)-1,5-bis(fluoromethyl)-2-thia-4-azabicyclo[4.1.0]hept-3-en-3-amine] | 0.735 | 2.02 | 14.1 | 784 |  |
| N#Cc1cnc(C#Cc2ccc(F)c([C@@]3(CF)N=C(N)S[C@@]4(CF)C[C@H]43)c2)s1 [Example 109, 2-((3-((1S,5S,6S)-3-amino-1,5-bis(fluoromethyl)-2-thia-4-azabicyclo[4.1.0]hept-3-en-5-yl)-4-fluorophenyl)ethynyl)thiazole-5-carbonitrile] | 0.057 | 1.11 | 0.092 | 705 |  |
| C[C@]1(c2cc(C#Cc3ccc(C#N)cn3)ccc2F)N=C(N)S[C@]2(CO)[C@H]1C2(F)F [Example 110, 6-((3-((1S,5S,6R)-3-amino-7,7-difluoro-1-(hydroxymethyl)-5-methyl-2-thia-4-azabicyclo[4.1.0]hept-3-en-5-yl)-4-fluorophenyl)ethynyl)nicotinonitrile] | 0.047 | 0.355 | 2.08 | 1160 |  |
| N#Cc1ccc(C#Cc2ccc(F)c([C@@]3(CF)N=C(N)S[C@@]4(/C=C/C(=O)N5CCOCC5)C[C@H]43)c2)nc1 [Example 111, 6-((3-((1R,5S,6S)-3-amino-5-(fluoromethyl)-1-((E)-3-morpholino-3-oxoprop-1-en-1-yl)-2-thia-4-azabicyclo[4.1.0]hept-3-en-5-yl)-4-fluorophenyl)ethynyl)nicotinonitrile] | 0.019 | 0.072 | 0.405 | 300 |  |
| CN(C)C(=O)/C=C/[C@]12C[C@H]1[C@@](CF)(c1cc(C#Cc3ccc(C#N)cn3)ccc1F)N=C(N)S2 [Example 112, (E)-3-((1R,5S,6S)-3-amino-5-(5-((5-cyanopyridin-2-yl)ethynyl)-2-fluorophenyl)-5-(fluoromethyl)-2-thia-4-azabicyclo[4.1.0]hept-3-en-1-yl)-N,N-dimethylacrylamide] | 0.025 | 0.139 | 1.59 | 176 |  |
| N#Cc1ccc(C#Cc2ccc(F)c([C@@]3(CF)N=C(N)S[C@@]4(CC(N)=O)C[C@H]43)c2)nc1 [Example 113, 2-((1R,5S,6S)-3-amino-5-(5-((5-cyanopyridin-2-yl)ethynyl)-2-fluorophenyl)-5-(fluoromethyl)-2-thia-4-azabicyclo[4.1.0]hept-3-en-1-yl)acetamide] | 0.116 | 0.153 | 3.76 | 1420 |  |
| C[C@]1(c2cc(C#Cc3ccc(C#N)cn3)cnc2F)N=C(N)S[C@@]2(CF)C[C@H]21 [Example 114, 6-((5-((1S,5S,6S)-3-amino-1-(fluoromethyl)-5-methyl-2-thia-4-azabicyclo[4.1.0]hept-3-en-5-yl)-6-fluoropyridin-3-yl)ethynyl)nicotinonitrile] | 0.637 | 0.677 | 3.37 | > 400 |  |
| Cc1cn(C[C@]23C[C@H]2[C@@](CF)(c2cc(C#Cc4ccc(C#N)cn4)ccc2F)N=C(N)S3)nn1 [Example 115, 6-((3-((1S,5S,6S)-3-amino-5-(fluoromethyl)-1-((4-methyl-1H-1,2,3-triazol-1-yl)methyl)-2-thia-4-azabicyclo[4.1.0]hept-3-en-5-yl)-4-fluorophenyl)ethynyl)nicotinonitrile] | 0.109 | 0.142 | 2.18 | 1030 |  |
| Cc1cc(C#N)cnc1C#Cc1ccc(F)c([C@@]2(CF)N=C(N)S[C@@]3(/C=C/C(=O)N4CCOCC4)C[C@H]32)c1 [Example 116, 6-((3-((1R,5S,6S)-3-amino-5-(fluoromethyl)-1-((E)-3-morpholino-3-oxoprop-1-en-1-yl)-2-thia-4-azabicyclo[4.1.0]hept-3-en-5-yl)-4-fluorophenyl)ethynyl)-5-methylnicotinonitrile] | 0.005 | 0.018 | 0.166 | 172 |  |
| NC1=N[C@](CF)(c2cc(C#Cc3ncc(Cl)cn3)ccc2F)[C@@H]2C[C@]2(/C=C/C(=O)N2CCOCC2)S1 [Example 117, (E)-3-((1R,5S,6S)-3-amino-5-(5-((5-chloropyrimidin-2-yl)ethynyl)-2-fluorophenyl)-5-(fluoromethyl)-2-thia-4-azabicyclo[4.1.0]hept-3-en-1-yl)-1-morpholinoprop-2-en-1-one] | 0.021 | 0.029 | 0.012 | 169 |  |
| COC[C@]12CC1[C@@](C)(c1cc(C#Cc3ncc(Cl)cc3C)ccc1F)N=C(N)S2 (stereo partly drawn) [Example 134, (1S,5S)-5-(5-((5-chloro-3-methylpyridin-2-yl)ethynyl)-2-fluorophenyl)-1-(methoxymethyl)-5-methyl-2-thia-4-azabicyclo[4.1.0]hept-3-en-3-amine] |  |  |  |  | 0.951 |
